Experimental data published in patent US6479549B2, “Carnosic acid derivatives for promoting synthesis of nerve growth factor” (Nagase & Company, Ltd., priority 2000, dated 2002).

Columns and labels:
[1] = test system: Human glioblastoma cells (T98G cell line); experiment: NGF content in culture supernatant of T98G cells (sandwich enzyme immunoassay); type: cell-based; conditions: for NGF Content in sample solution: 100 uM effective ingredient in Opti-MEM medium, T98G cells, 4 days cultivation, mean ± standard deviation, comparative example (none) 6.3 ± 1.2; for Relative NGF content: 100 uM, ratio of NGF content in example solution to that in comparative example solution (=1.0)
Description: Human glioblastoma cells (T98G cell line) were seeded in a MEM medium containing fetal bovine serum (10%; Gibco), sodium pyruvate (x 1; Gibco) and nonessential amino acids (x 1; Gibco) in wells of a flat-bottom 96-well plate (Corning), in a cell density of 2×10^4/well, and cultivated in a CO2 incubator (37° C., 5% CO2) for 3 days. The medium was then replaced by an Opti-MEM medium (containing 5 mg/ml of bovine serum albumin). The cultivation was continued for further 6 days with replacing the medium at intervals of 3 days.
After removing the medium, an Opti-MEM medium (containing 5 mg/ml of bovine serum albumin) containing 100 uM (micromole) of carnosic acid diacetate obtained in Example 1 was added to each well in an amount of 50 ul (microliter)/well, and the cultivation was continued for further 4 days. After the cultivation, the supernatant was taken as a sample solution.
On the other hand, 1 ug/ml of an anti-NGF antibody (Promega) solution (50 ul) was added to each well of a 96-well microplate (Nunc), and the plate was allowed to stand overnight at 4° C. After washing the plate with PBS(-) (Nissui Pharmaceuticals), 1% of a bovine serum albumin (Sigma) solution (100 ul) was added to each well of the plate and the plate was allowed to stand at room temperature for 4 hrs to block the plate. […]
Subsequently, 0.4 unit/ml of a beta-galactosidase-labeled anti-NGF antibody (Boehringer Mannheim) solution (50 ul) was added to each well of the plate, and allowed to react at room temperature for one hour. […] The fluorescence intensity of 4-methylumbelliferone produced was measured on a fluorescence plate reader, and the content of NGF contained in the sample solution was determined using a standard curve obtained from a standard solution (human beta-NGF; PEPRO TECH EC).
The content of NGF contained in the sample solution was determined as described in Example 4, except that an Opti-MEM medium (containing 5 mg/ml of bovine serum albumin) containing 100 uM of carnosic acid diacetate methyl ester obtained in Example 2 was used in an amount of 50 ul/well, instead of carnosic acid diacetate.
The content of NGF contained in the sample solution was determined as described in Example 4, except that an Opti-MEM medium (containing 5 mg/ml of bovine serum albumin) containing 100 uM of carnosic acid methyl ester obtained in Example 3 was used inan amount of 50 ul/well, instead of carnosic acid diacetate.
The content of NGF contained in the sample solution was determined as described in Example 4, except that an Opti-MEM medium (containing 5 mg/ml of bovine serum albumin) not containing carnosic acid diacetate was used in an amount of 50 ul/well, instead of the Opti-MEM medium containing carnosic acid diacetate.

Wistar male rats = experiment: Ethanol-induced stomach ulcers in rats (ulcer index); type: in vivo; conditions: 10 mg/kg body weight oral
Description: To Wistar male rats (5 rats per group) of 180-200 g body weight fasted for 24 hours before the start of a test, carnosic acid diacetate obtained in Example 1 was orally administered in a dose level of 10 mg per kg body weight, after suspending it in water. After 30 minutes of the administration, 1 ml of ethanol (99.5%) was orally administered to each rat. After one hour of the ethanol administration, laparotomy was carried out and the lengths of all ulcers developed in the stomach were measured arld added up. The total lengths of ulcers are taken as ulcer indexes.
The lengths of all ulcers developed in the stomach were measured and added up as described in Example 7, except that water containing carnosic acid methyl ester (10 mg per kg body weight) was used instead of water containing carnosic acid diacetate. The total lengths of ulcers are taken as ulcer indexes.
The lengths of all ulcers developed in the stomach were measured and added up as described in Example 7, except that water not containing carnosic acid diacetate was used instead of water containing carnosic acid diacetate. The total lengths of ulcers are taken as ulcer indexes.

SMILES | NGF Content in sample solution [1] [pg/mL] | Relative NGF content [1] | Ulcer index (Wistar male rats; 30 minutes before 1 ml ethanol (99.5%) oral, total length of stomach ulcers 1 hour after ethanol, mean ± standard deviation, comparative example 62.4) [mm] | Relative ulcer index (Wistar male rats; ratio of ulcer index in example to that in comparative example 2 (=100))
COC(=O)[C@@]12CCCC(C)(C)[C@H]1CCc1cc(C(C)C)c(OC(C)=O)c(OC(C)=O)c12 [Carnosic acid diacetate methyl ester, carnosic acid diacetate methyl ester] | 50.6 ± 4.3 | 8.0 |  | 
COC(=O)[C@]12CCCC(C)(C)C1CCc1cc(C(C)C)c(O)c(O)c12 (stereo partly drawn) [Carnosic acid methyl ester, carnosic acid methyl ester] | 33.3 ± 2.8 | 5.3 | 33.6 ± 3.6 | 53.8
